Consider one compound from paper PMC7497692 (Investigational New Drugs, 2020).

The nature of series [1]: Unbound fraction of tepotinib in plasma, ex vivo equilibrium dialysis (part A). Type of series: in vitro ADME, human healthy male volunteers. To be noted: male, human, 498 mg. The procedure: Participants were hospitalized from day 1 to day 16 of the study, and further assessed on days 19, 22, and 25 (trial end). […] Pre-dose feces and urine samples were collected on day 1 and day 2, respectively. Urine was collected at 4- to 12-h intervals on day 1 and every 24 h thereafter up to day 16. Feces were collected every 24 h up to day 16. Provision was made to collect further samples up to day 39 if >1% of the administered dose was detectable in the total (urine and feces) excreta per day on two consecutive measurements.
Plasma (300 μL) was dialyzed against 100 mM sodium phosphate buffer (pH 7.4) in an orbital shaker at 37 °C for 18 h. The deuterated internal standard [^2H]-MSC2156119A and 100 mM sodium phosphate buffer (pH 7.4) were added to 5 μL of the dialyzed samples and centrifuged. Supernatant (30 μL) was diluted with acetonitrile/water (50 + 50, v/v) and centrifuged, and 5–20 μL aliquots were injected onto an XBridge C18 column (2.1 × 20 mm; 5 μm; Waters, Milford, Massachusetts, USA). Separation was carried out using a mobile phase gradient (eluent A: 5 mM ammonium bicarbonate in water; eluent B: 5 mM ammonium bicarbonate in methanol) with a flow rate of 1.2 mL/min. Mass spectrometric detection of tepotinib and its internal standard was performed as described above. The LLOQ was 0.015 ng/mL in plasma dialysates and 1.00 ng/mL in plasma. Calibration standards between 0.015 and 30.0 ng/mL (plasma dialysates), and between 1.00 ng/mL and 1000 ng/mL (plasma) were calculated by weighted (1/x^2) quadratic regression analysis, respectively.

The conditions of series [2]: cited from earlier work.
Series [3] in a line: Oral and IV tracer PK and absolute bioavailability (part B). Particulars: for bioavailability: 500 mg; for tlag / tmax: median (min–max). Type of series: in vivo, human healthy male volunteers. As to the method: Participants were hospitalized from day 1 to day 7 of the study, and further assessed on days 9, 11, and 14 (study end).
In brief, the isotopically labeled internal standard [^2H]-MSC2156119A was added to 20 μL K2-ethylenediaminetetraacetic acid (EDTA) plasma. […] Samples were centrifuged and 10 μL aliquots of the supernatant were injected onto an Acquity Charged Surface Hybrid™ (CSH) C18 column (2.1 × 50 mm; […]; Waters, Milford, Massachusetts, USA). Separation was carried out using a mobile phase gradient (eluent A: water/formic acid [100 + 1, v/v]; eluent B: acetonitrile/formic acid [100 + 1, v/v]) with a flow rate of 0.6 mL/min. […] The lower limit of quantification (LLOQ) was 5.00 ng/mL, and the calibration standard responses were linear over the range between 5.00 and 2500 ng/mL using a weighted (1/x^2) linear regression.
The accelerator mass spectrometry (AMS) analysis of [^14C]-tepotinib in plasma samples in part B of the trial was performed by Eckert & Ziegler Vitalea Science (Davis, California, USA) using a validated method that involves isolation of the analyte by ultra-high-performance liquid chromatography (UPLC) fractionation, followed by the quantification of the ^14C content in collected fractions using AMS [26]. […] Following protein precipitation and further chemical steps, 50 μL of the reconstituted extracts were injected onto a Waters Acquity UPLC instrument equipped with a CSH fluoro-phenyl analytical column (3.0 × 100 mm; 1.7 μm; Waters, Milford, Massachusetts, USA) and an ethylene bridged hybrid C18 (2.1 × 5 mm; 1.7 μm; Waters, Milford, Massachusetts, USA) pre-column. Separation of [^14C]-tepotinib from potentially interfering metabolites or degradants that may have been present in the study samples was carried out using a mobile phase gradient (eluent A: 5 mM ammonium acetate in water; eluent B: acetonitrile) with a flow rate of 0.75 mL/min. […] Samples were then introduced into the BioMICADAS AMS instrument (PSI/ETH, Zurich, Switzerland). The LLOQ was 0.0883 pg/mL.
The maximum plasma concentration (Cmax) and time to reach maximum concentration (tmax) were derived directly from the plasma concentration–time data. Lag time (tlag) was the time prior to the first measurable (non-zero) concentration. The area under the plasma concentration–time curve from 0 to t (last measurable concentration; AUC0–t) was calculated using a mixed log–linear trapezoidal method. Area under the plasma concentration–time curve until the last sampling time (AUCall), which corresponds to AUC0–240 h within the observation period, was used for metabolite calculations. Amounts excreted in urine, feces, and total (urine + feces) were calculated as the sum of amounts (concentration multiplied by volume) for each collection from time 0 to time t. The terminal rate constant (λz) was used to estimate the terminal half-life (t½) (ln 2/λz), and the area under the concentration–time curve from time 0 to infinity (AUC0–∞). Total body clearance (CL) and apparent body clearance (CL/f) were determined by dose/AUC0–∞, and total volume of distribution (Vz) and apparent volume of distribution (Vz/f) were calculated by dose/(AUC0–∞*λz) after IV and oral administration, respectively. Volume of distribution of the central compartment (Vc) was derived by dividing the dose by the initial drug plasma concentration after IV administration. Absolute bioavailability was calculated as F = (AUCoral/doseoral)/(AUCIV/doseIV) × 100. The ratios (%) AUCtepotinib or metabolite/AUCtotal radioactivity were calculated as a percentage of the molar AUCs.

Where [4] appears, read: single oral 500 mg tablet, geometric mean (geometric CV%), min–max.
Where [5] appears, read: single oral 500 mg tablet, listed as tepotinib.

Where two headings read alike, the source gives them in different places.

As for `CN1CCC(COc2cnc(-c3cccc(Cn4nc(-c5cccc(C#N)c5)ccc4=O)c3)nc2)CC1` [Tepotinib], the fraction unbound at 18 h in series [1] (pH 7.4, ex vivo, 4–24 h after oral administration, read-out: highest free fraction observed in individual participants) was 0.0325; in series [1] (pH 7.4, ex vivo, 4–24 h after oral administration, read-out: lowest free fraction observed in individual participants), 0.0165; in series [1] (pH 7.4, unbound fraction of tepotinib in plasma, median values, ex vivo, range of medians at 4, 8, 12 and 24 h after oral administration), 0.018 to 0.024. Further, in series [2], the “main binding partners in plasma” value is “human serum albumin and α-acid glycoprotein”. Moreover, in series [2] (in vitro, concentration range 0.3–10 μM), the “unbound fraction of tepotinib in human plasma” value is listed as 1.6–3.4%. The “absolute bioavailability, inter-individual variability (geometric CV)” value in series [3] (500 mg tablet vs IV tracer, n=6) is given as 10.8%. Further, in series [3] (IV tracer, geometric mean (geometric CV%), min–max), the Vc was 34.6 L. In addition, the t½ in series [3] (IV tracer, geometric mean (geometric CV%), min–max, plasma) came out at 31.2 h; in series [3] (setting [4]), 28.3 h. The bioavailability in series [3] (male, human, in vivo, geometric mean, 500 mg phase II tablet formulation vs IV tracer, n=6, read-out: absolute bioavailability) was 72%; in series [3] (male, human, in vivo, range, 500 mg tablet vs IV tracer, n=6, read-out: absolute bioavailability, range), 62 to 81%. Further, the clearance in series [3] (male, human, in vivo, IV tracer, geometric mean (geometric CV%), min–max) is 213 mL/min. Besides, the Vd in series [3] (male, human, in vivo, IV tracer, geometric mean (geometric CV%), min–max, read-out: Vz) stood at 574 L. The Vd/F in series [3] (male, human, in vivo, single oral 500 mg tablet, geometric mean (geometric CV%), min–max, read-out: Vz/f) worked out at 726 L. This compound also showed a half-life in series [3] (male, human, in vivo, summary statement in the discussion) of 30 h. In series [3] (setting [4]), this compound gave a CL/f of 17.8 L/h. Further, the figures for the tlag in series [3] (single oral 500 mg tablet) and in series [3] (setting [5]) were 0.52 (0.25–2.0) Hours and 0.5 h, respectively. For the same compound, the results for the tmax in series [3] (single oral 500 mg tablet) and in series [3] (setting [5]) were 10.0 (3.0–10.0) Hours and 10 h, respectively.

As a reminder, the t½ is the time in which the quantity being followed falls by half. High values mean slow loss, low ones fast loss. One may read the bioavailability as the share of a dose that reaches the circulation, judged against a reference dose that is usually intravenous. For orientation: half-life means the time in which the quantity being followed falls by half. The low end stands for rapid decline, the high end for slow decline.
